Measurements taken from patent publication EP0671905B1, “STABLE PROTEIN: PHOSPHOLIPID COMPOSITIONS AND METHODS” (Amgen Inc., priority 1993, dated 1995).

What was measured:
[1] = Tryptophan fluorescence emission spectra of protein:lipid complexes; type: physicochemical; details: mole ratio lipid:rhG-CSF 100:1
Method: There are two tryptophan residues in rhG-CSF that are quite sensitive to local environmental conditions. Therefore, analysis was performed to determine the rhG-CSF tryptophan fluorescence when the rhG-CSF is contacted with a liposome. […] An excellent review of tryptophan fluorescence analysis is […], by J. Lakowicz, Chap 11 (Plenum Press, New York, 1983).
Tryptophan fluorescence of the G-CSF:lipid complexes (as described above) was assayed by exciting the samples at 280 nm and while scanning the emission from 285 nm to 420 nm in 1nm increments at a rate of 1 nm/sec. The sample volume was 3 ml and the final concentration of G-CSF was 0.2 mg/ml for all samples. The lipid:G-CSF ratios varied. All fluorescence measurements were carried out using a PTI Alphascan fluorometer (South Brunswick, NJ). All measurements were performed at 25°C and this temperature was maintained through the use of a water-jacketed cuvette holder connected to a circulating water bath. Emission spectra were collected and analyzed using the data software provided by PTI.
In this example, the ability of rhG-CSF to interact with other phospholipids was determined using comparisons of F/FO intensity and emission maximums as described above. In each instance, the mole ratio of lipid:rhG-CSF was 100:1.
In this example, chemically modified G-CSF (pegylated G-CSF (PEG-G-CSF)) and G-CSF obtained as a product of eucaryotic host cell expression (CHO-G-CSF) were tested for their ability to interact with negatively charged lipid vesicles. For the CHO-G-CSF, the determinations were made using comparisons of F/FO intensity and emission maximums (as described in Example 1 above). In each instance, the mole ratio of lipid:protein was 100:1. For the PEG-G-CSF, the determination was based upon circular dichroism analysis.

[2] = system: murine bone marrow cells; test: In vitro activity: G-CSF dependent uptake of [3H]-thymidine by bone marrow cells; type: cell-based; details: lipid mixed with rhG-CSF, lipid:protein ratio 100:1; control untreated rhG-CSF without lipid
Method: In this example, the effect of the rhG-CSF:DOPG interaction as it relates to the biological activity of rhG-CSF was determined. The in vitro activity of rhG-CSF was assayed utilizing the G-CSF dependent uptake of [^3H]-thymidine by murine bone marrow cells as described in Zsebo et al., Immunobiology 172: 175-184 (1986). All activity assays were performed in triplicate. In vivo activity was determined by subcutaneous injection of hamsters (rhG-CSF dose of 100 µg/kg) and measurements of white blood cell (WBC) count.
After heating to 85°C for 10 minutes, rhG-CSF has undetectable activity and the protein precipitates. […] B. The ability of various lipids to stabilize rhG-CSF during freeze drying was also studied. Samples of rhG-CSF in combination with various lipids were freeze dried and assayed (as described above) for activity.

[3] = Circular dichroism at 222 nm, thermal stability and temperature cycling; type: physicochemical; details: for effect on secondary structure of rhG-CSF (circular dichroism): 150:1 lipid:rhG-CSF ratio, heated to 95°C and cooled to 10°C; for thermal stability of GM-CSF (circular dichroism): lipid:GM-CSF ratio 17:1, PBS pH 7.0, heated to 90°C and cooled to 10°C

SMILES | effect on emission maximum and fluorescence intensity of rhG-CSF [1] | insertion of rhG-CSF into lipid vesicles (F/FO and emission maximum) [1] | retention of rhG-CSF bioactivity after freeze drying [2] | effect on secondary structure of rhG-CSF (circular dichroism) [3] | thermal stability of GM-CSF (circular dichroism) [3]
CCCCCCCCCCCCCC(=O)OC[C@H](COP(=O)([O-])OCC[N+](C)(C)C)OC(=O)CCCCCCCCCCCCC [DMPC, reference compound] | little if no effect |  |  |  | 
CCCCCCCCCCCCCC(=O)OCC(COP(=O)(O)OCC(O)CO)OC(=O)CCCCCCCCCCCCC (centres unmarked) [DMPG, dimyristoylphosphatidylglycerol] |  | can insert | ~100% | stabilize the secondary structure of rhG-CSF | recovery of secondary structure after heating
CCCCCCCC/C=C\CCCCCCCC(=O)OC[C@H](COP(=O)([O-])OCC[N+](C)(C)C)OC(=O)CCCCCCC/C=C\CCCCCCCC [DOPC, reference compound] | little if no effect |  |  |  | 
CCCCCCCC/C=C\CCCCCCCC(=O)OC[C@H](COP(=O)(O)OCC(O)CO)OC(=O)CCCCCCC/C=C\CCCCCCCC (some centres unmarked) [DOPG, dioleoylphosphatidylglycerol] |  | can insert | ~100% |  | 
CCCCCCCCCCCCCCCC(=O)OC[C@H](COP(=O)([O-])OCC[N+](C)(C)C)OC(=O)CCCCCCCCCCCCCCC [DPPC, reference compound] | little if no effect |  |  |  | 
CCCCCCCCCCCCCCCC(=O)OCC(COP(=O)(O)OCC(O)CO)OC(=O)CCCCCCCCCCCCCCC (centres unmarked) [DPPG, dipalmitoylphosphatidylglycerol] |  | can insert | ~100% | stabilize the secondary structure of rhG-CSF | recovery of secondary structure after heating
CCCCCCCCC=CCCCCCCCC(=O)OCC(COP(=O)(O)OCCNC(=O)CCCC(=O)O)OC(=O)CCCCCCCC=CCCCCCCCC (centres unmarked) [NG-DOPE] |  | improved insertion of the rhG-CSF than DOPE |  |  | 
